We go through 8 molecules from US20250320193A1, “OXOISOINDOLINYL SUBSTITUTED PIPERIDINEDIONE DERIVATIVE AND USE THEREOF” (GLUETACS THERAPEUTICS (SHANGHAI) CO., LTD., priority 2022, published 2025).

The target in test [1] is human Cereblon WT GST-tagged protein (Homo sapiens (Human), UniProt Q96SW2). The test can be described thus: CRBN-binding affinity, HTRF (CEREBLON BINDING kit, CISBIO). To be noted: HTRF inhibitory activity. The method, boiled down: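 Compounds were mixed with GST-tagged human Cereblon WT protein, then with Thalidomide-Red tracer and GST Eu antibody, and binding was read by HTRF. Inhibition rate was calculated from 620 nm emission relative to blank control wells (no protein) and solvent control wells.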
Background: In TR-FRET formats the signal depends on donor and acceptor labels being close together.

Test [2] addresses IKZF1 (Homo sapiens (Human), UniProt Q13422+Q96SW2). The test can be described thus: Western blot, substrate protein expression in hPBMC: IKZF1. The test is classed as cell-based. To be noted: for substrate protein remaining % IKZF1: hPBMC, compound 500 nM, 24 hours, Western blot; for concentration at which IKZF1 protein was significantly degraded (Western blot, FIG. 1): hPBMCs. The method, boiled down:
(§1)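 hPBMC, 1×10^6 cells/mL, 24 h compound exposure; RIPA lysis, BCA protein assay, SDS-PAGE, NC membrane immunoblot. Densitometry vs internal control → % protein remaining; degradation % = 100% − remaining; DC50 = conc. at 50% of DMSO band signal.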

Test [3] deals with IKZF3 (Homo sapiens (Human), UniProt Q96SW2+Q9UKT9). Kind of test: Western blot, substrate protein expression in hPBMC: IKZF3. Type of test: cell-based. To be noted: for substrate protein remaining % IKZF3: hPBMC, compound 500 nM, 24 hours, Western blot; for concentration at which IKZF3 protein was significantly degraded (Western blot, FIG. 1): hPBMCs. The method, boiled down:
as §1

For test [4], the target named is GSPT1 (Homo sapiens (Human), UniProt P15170+Q96SW2). Kind of test: Western blot, substrate protein expression in hPBMC: GSPT1. To be noted: for substrate protein remaining % GSPT1: hPBMC, compound 500 nM, 24 hours, Western blot; for concentration at which GSPT1 protein was clearly/significantly degraded (Western blot, FIG. 1): hPBMCs. Type of test: cell-based. The method, boiled down: as §1
A general note: Immunoblotting shows a protein as a band on a membrane.

For test [5], the system named is H146 cells (human small cell lung carcinoma cells). Kind of test: Tumor cell proliferation inhibition, CCK-8. Type of test: cell-based. Particulars: NCI-H146, H146 cells, CCK-8, read-out: inhibitory activity (IC50, nM) H146. On the procedure: (§2) The tumor cells used herein were cultured in a cell culture medium listed in table 2 at 37° C. in an incubator with 5% CO2. Prior to experimentation, all cells used were correctly identified by STR profiling, and tested negative for mycoplasma through routine screenings.
(§3) IC50 values of the compounds of the present disclosure (including the compounds in Table 1 and the Examples 1-305 compounds) were measured using the Meilun Cell Counting Kit-8 kit from Dalian Meilun Biotech Co., Ltd. Assay details are as follows: tumor cells were seeded in a 96-well plate at a density listed in Table 5. After 24 h, 100 μL of the inoculated cells were treated with 0.5 μL of the compounds of the present disclosure (including the compounds in Table 1 and the Examples 1-305 compounds) at 10 different successively decreasing concentrations (starting at the highest concentration of 10 μM; 5-fold serial dilutions). After the cells were treated with the compounds of the present disclosure for a period of time, the cell viability detection reagent was added to the culture medium for cell viability assessment according to the instructions provided with the CCK-8 kit. […] The growth inhibition of the compounds of the present disclosure on cells was plotted by Prism Graphpad software, and the IC50 values of the compounds of the present disclosure were calculated therefrom.

The subject of test [6] is MDA-MB-231 cells (human breast adenocarcinoma cells). The test can be described thus: Tumor cell proliferation inhibition, CCK-8. Type of test: cell-based. Particulars: MDA-MB-231 cells, CCK-8, read-out: inhibitory activity (IC50, nM) MDA-MB-231. As to the method: as §2, §3
For test [7], the system named is MM.1S cells (human multiple myeloma cells). Kind of test: Tumor cell proliferation inhibition, CCK-8. Type of test: cell-based. To be noted: MM1.S, MM.1S cells, CCK-8, read-out: inhibitory activity (IC50, nM) MM.1S. As to the method: as §2, §3
Test [8] relates to TMD8 cells (human diffuse large B-cell lymphoma cells). The test can be described thus: Tumor cell proliferation inhibition, CCK-8. Type of test: cell-based. Particulars: TMD8 cells, CCK-8, read-out: inhibitory activity (IC50, nM) TMD8. On the procedure:
as §2, §3

One may read the IC50 as the midpoint of a concentration-inhibition curve.

IKZF1, sequence (Q13422 whole entry): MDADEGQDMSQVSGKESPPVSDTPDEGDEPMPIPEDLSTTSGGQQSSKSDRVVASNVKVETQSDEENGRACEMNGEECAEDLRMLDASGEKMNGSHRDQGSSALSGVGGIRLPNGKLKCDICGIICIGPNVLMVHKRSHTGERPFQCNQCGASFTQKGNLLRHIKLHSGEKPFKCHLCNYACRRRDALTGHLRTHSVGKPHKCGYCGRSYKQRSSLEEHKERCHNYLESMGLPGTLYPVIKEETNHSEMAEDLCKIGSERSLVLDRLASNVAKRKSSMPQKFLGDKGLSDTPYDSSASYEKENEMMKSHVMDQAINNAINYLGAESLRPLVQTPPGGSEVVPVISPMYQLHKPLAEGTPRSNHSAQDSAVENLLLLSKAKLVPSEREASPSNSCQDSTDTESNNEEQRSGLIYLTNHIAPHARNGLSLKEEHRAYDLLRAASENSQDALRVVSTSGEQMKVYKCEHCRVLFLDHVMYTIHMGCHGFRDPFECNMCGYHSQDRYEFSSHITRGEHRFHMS
IKZF1, sequence (Q96SW2 whole entry): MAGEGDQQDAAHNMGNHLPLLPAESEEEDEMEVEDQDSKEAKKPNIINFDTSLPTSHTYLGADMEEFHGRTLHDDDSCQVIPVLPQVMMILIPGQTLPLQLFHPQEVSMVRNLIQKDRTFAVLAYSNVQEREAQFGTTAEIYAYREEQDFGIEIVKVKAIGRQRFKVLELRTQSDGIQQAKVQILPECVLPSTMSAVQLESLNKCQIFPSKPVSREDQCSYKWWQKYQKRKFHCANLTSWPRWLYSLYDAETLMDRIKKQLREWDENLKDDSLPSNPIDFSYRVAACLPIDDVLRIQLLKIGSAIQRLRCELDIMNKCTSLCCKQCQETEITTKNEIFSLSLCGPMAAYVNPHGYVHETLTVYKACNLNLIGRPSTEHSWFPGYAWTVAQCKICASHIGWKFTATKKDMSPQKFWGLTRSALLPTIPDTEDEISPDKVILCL
IKZF1, sequence (Q16531 whole entry partner): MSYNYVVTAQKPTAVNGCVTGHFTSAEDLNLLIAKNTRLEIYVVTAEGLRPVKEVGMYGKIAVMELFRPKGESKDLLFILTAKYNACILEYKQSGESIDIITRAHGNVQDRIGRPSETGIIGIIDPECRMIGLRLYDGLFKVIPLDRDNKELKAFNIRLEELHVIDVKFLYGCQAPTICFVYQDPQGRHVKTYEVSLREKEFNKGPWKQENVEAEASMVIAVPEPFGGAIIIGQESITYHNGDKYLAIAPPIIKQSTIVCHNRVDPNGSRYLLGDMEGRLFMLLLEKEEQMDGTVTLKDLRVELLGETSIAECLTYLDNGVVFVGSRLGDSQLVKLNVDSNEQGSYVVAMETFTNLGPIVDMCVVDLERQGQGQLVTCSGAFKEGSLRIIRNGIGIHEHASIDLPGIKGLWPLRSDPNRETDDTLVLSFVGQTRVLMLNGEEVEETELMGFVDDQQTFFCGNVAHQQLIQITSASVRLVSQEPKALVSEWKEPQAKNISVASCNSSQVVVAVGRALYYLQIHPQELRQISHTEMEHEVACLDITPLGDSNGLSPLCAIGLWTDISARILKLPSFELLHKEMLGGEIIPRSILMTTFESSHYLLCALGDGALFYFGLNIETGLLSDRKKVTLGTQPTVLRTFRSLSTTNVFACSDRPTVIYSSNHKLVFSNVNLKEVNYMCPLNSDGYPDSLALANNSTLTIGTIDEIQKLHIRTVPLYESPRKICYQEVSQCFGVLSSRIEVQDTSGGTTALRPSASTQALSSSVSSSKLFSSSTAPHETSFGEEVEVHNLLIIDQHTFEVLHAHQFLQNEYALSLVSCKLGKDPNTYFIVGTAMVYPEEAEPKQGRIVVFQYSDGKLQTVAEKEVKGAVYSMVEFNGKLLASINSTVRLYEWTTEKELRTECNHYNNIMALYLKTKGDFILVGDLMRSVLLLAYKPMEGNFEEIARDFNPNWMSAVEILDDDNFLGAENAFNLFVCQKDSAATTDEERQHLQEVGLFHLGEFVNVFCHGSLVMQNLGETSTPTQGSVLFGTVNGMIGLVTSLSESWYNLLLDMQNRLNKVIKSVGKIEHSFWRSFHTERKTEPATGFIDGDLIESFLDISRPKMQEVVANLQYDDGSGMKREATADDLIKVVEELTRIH
GSPT1, sequence (P15170 whole entry): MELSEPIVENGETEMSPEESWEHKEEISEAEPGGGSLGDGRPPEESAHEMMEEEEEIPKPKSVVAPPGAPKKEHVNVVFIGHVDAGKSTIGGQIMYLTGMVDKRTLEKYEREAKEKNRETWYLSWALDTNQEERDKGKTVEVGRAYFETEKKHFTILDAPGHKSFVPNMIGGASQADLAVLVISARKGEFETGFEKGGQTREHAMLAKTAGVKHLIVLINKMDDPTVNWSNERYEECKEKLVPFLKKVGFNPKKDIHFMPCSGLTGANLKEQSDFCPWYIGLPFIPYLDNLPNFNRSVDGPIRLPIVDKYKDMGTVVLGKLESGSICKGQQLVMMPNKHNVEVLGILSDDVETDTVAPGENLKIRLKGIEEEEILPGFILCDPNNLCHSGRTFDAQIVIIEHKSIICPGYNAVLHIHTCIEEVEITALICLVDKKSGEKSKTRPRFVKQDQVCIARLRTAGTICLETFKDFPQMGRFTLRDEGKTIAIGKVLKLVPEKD
GSPT1, sequence (Q96SW2 whole entry): as the sequence (Q96SW2 whole entry) above
GSPT1, sequence (Q16531 whole entry partner): as the sequence (Q16531 whole entry partner) above
human Cereblon WT GST-tagged protein, sequence (Q96SW2 whole entry): as the sequence (Q96SW2 whole entry) above
IKZF3, sequence (Q9UKT9 whole entry): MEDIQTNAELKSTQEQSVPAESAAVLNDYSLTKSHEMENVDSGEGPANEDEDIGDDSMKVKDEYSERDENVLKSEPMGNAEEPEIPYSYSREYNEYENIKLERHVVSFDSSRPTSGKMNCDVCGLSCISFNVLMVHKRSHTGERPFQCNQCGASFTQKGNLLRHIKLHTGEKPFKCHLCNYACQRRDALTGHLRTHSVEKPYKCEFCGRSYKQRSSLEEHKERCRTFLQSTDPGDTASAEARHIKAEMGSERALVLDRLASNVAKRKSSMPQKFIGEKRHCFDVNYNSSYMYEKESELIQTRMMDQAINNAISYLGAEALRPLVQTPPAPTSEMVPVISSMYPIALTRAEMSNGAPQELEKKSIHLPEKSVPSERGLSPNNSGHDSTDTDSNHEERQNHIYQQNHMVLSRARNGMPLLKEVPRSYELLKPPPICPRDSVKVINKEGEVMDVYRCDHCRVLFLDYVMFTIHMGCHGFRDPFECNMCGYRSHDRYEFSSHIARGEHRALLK
IKZF3, sequence (Q96SW2 whole entry): as the sequence (Q96SW2 whole entry) above
IKZF3, sequence (Q16531 whole entry partner): as the sequence (Q16531 whole entry partner) above

Turning to `O=C1CCC(N2Cc3cc(CN4CCC(N(c5ccccc5)c5ccccn5)CC4)ccc3C2=O)C(=O)N1` (stereo not drawn) [GT-04525, 3-(1-oxo-5-((4-(phenyl(pyridin-2-yl)amino)piperidin-1-yl)methyl)isoindolin-2-yl)piperidine-2,6-dione], the IC50 in test [1] is below 500 nM; in test [5], 1 to 10 nM; in test [6] it was 1 to 10 nM; in test [7] it was below 1 nM; in test [8] it was 1 to 10 nM. In addition, the “substrate protein remaining % IKZF1” value in test [2] is reported as “A (A represents 0% ≤ substrate protein remaining % ≤ 50%)”. In addition, the “concentration at which IKZF1 protein was significantly degraded (Western blot, FIG. 1)” value in test [2] was “below 50 nM”. Besides, the “substrate protein remaining % IKZF3” value in test [3] was “A (A represents 0% ≤ substrate protein remaining % ≤ 50%)”. For the same molecule, the “concentration at which IKZF3 protein was significantly degraded (Western blot, FIG. 1)” value in test [3] is recorded as “below 50 nM”. For the same molecule, the “substrate protein remaining % GSPT1” value in test [4] is “A (A represents 0% ≤ substrate protein remaining % ≤ 50%)”. The “concentration at which GSPT1 protein was clearly/significantly degraded (Western blot, FIG. 1)” value in test [4] is “below 50 nM”.
With `O=C1CCC(N2Cc3c(ccc(CN4CCC(N(c5ccccc5)c5ccccn5)CC4)c3F)C2=O)C(=O)N1` (stereo not drawn) [GT-05856, 3-(4-fluoro-1-oxo-5-((4-(phenyl(pyridin-2-yl)amino)piperidin-1-yl)methyl)isoindolin-2-yl)piperidine-2,6-dione], the concentration for half-maximal inhibition (IC50) in test [1] is below 500 nM; in test [5] it was 1 to 10 nM; in test [6], 1 to 10 nM; in test [7], below 1 nM; in test [8], 1 to 10 nM. In test [2], the “substrate protein remaining % IKZF1” value is given as “A (A represents 0% ≤ substrate protein remaining % ≤ 50%)”. Further, in test [2], the “concentration at which IKZF1 protein was significantly degraded (Western blot, FIG. 1)” value is recorded as “below 50 nM”. Moreover, in test [3], the “substrate protein remaining % IKZF3” value is listed as “A (A represents 0% ≤ substrate protein remaining % ≤ 50%)”. Moreover, the “concentration at which IKZF3 protein was significantly degraded (Western blot, FIG. 1)” value in test [3] is given as “below 50 nM”. For the same molecule, in test [4], the “substrate protein remaining % GSPT1” value is on record as “A (A represents 0% ≤ substrate protein remaining % ≤ 50%)”. In addition, the “concentration at which GSPT1 protein was clearly/significantly degraded (Western blot, FIG. 1)” value in test [4] was “below 50 nM”.
On to `O=C1CCC(N2Cc3cc(CN4CCC(N(c5ccccc5)c5ccccn5)CC4)c(F)cc3C2=O)C(=O)N1` (stereo not drawn) [GT-05857, 3-(6-fluoro-1-oxo-5-((4-(phenyl(pyridin-2-yl)amino)piperidin-1-yl)methyl)isoindolin-2-yl)piperidine-2,6-dione], for which the IC50 in test [1] was below 500 nM; in test [5], 1 to 10 nM; in test [6], 1 to 10 nM; in test [7] it was below 1 nM; in test [8], 1 to 10 nM. The “substrate protein remaining % IKZF1” value in test [2] is recorded as “A (A represents 0% ≤ substrate protein remaining % ≤ 50%)”. Further, the “concentration at which IKZF1 protein was significantly degraded (Western blot, FIG. 1)” value in test [2] is “below 50 nM”. The “substrate protein remaining % IKZF3” value in test [3] is “A (A represents 0% ≤ substrate protein remaining % ≤ 50%)”. The “concentration at which IKZF3 protein was significantly degraded (Western blot, FIG. 1)” value in test [3] is “below 50 nM”. Moreover, in test [4], the “substrate protein remaining % GSPT1” value is “A (A represents 0% ≤ substrate protein remaining % ≤ 50%)”. Also, the “concentration at which GSPT1 protein was clearly/significantly degraded (Western blot, FIG. 1)” value in test [4] is “below 50 nM”.
With `O=C1CCC(N2Cc3cc(N4C5CCC4CN(C(c4ccccc4)c4ccccc4)C5)ccc3C2=O)C(=O)N1` (stereo not drawn) [GT-05866, 3-(5-(3-benzhydryl-3,8-diazabicyclo[3.2.1]octan-8-yl)-1-oxoisoindolin-2-yl)piperidine-2,6-dione], the half-inhibitory concentration (IC50) in test [1] lay in the range of 500 to 1000 nM; in test [5] it was 10 to 50 nM; in test [6], 10 to 50 nM; in test [7], 1 to 10 nM; in test [8], 50 to 100 nM. The “substrate protein remaining % IKZF1” value in test [2] is listed as “B (B represents substrate protein remaining % > 50%)”. Also, in test [3], the “substrate protein remaining % IKZF3” value is “A (A represents 0% ≤ substrate protein remaining % ≤ 50%)”. For the same molecule, the “substrate protein remaining % GSPT1” value in test [4] is “A (A represents 0% ≤ substrate protein remaining % ≤ 50%)”.
For the molecule `O=C1CCC(N2Cc3cc(CN4C[C@@H]5C[C@H]4CN5C(c4ccccc4)c4ccccc4)c(F)cc3C2=O)C(=O)N1` (stereo partly drawn) [GT-05894, 3-(5-(((1S,4S)-5-benzhydryl-2,5-diazabicyclo[2.2.1]heptan-2-yl)methyl)-6-fluoro-1-oxoisoindolin-2-yl)piperidine-2,6-dione], the IC50 in test [1] was below 500 nM; in test [5], 10 to 50 nM; in test [6] it was 50 to 100 nM; in test [7], 1 to 10 nM; in test [8], 500 to 1000 nM. Further, the “substrate protein remaining % IKZF1” value in test [2] is listed as “A (A represents 0% ≤ substrate protein remaining % ≤ 50%)”. Besides, in test [3], the “substrate protein remaining % IKZF3” value is “B (B represents substrate protein remaining % > 50%)”. For the same molecule, in test [4], the “substrate protein remaining % GSPT1” value is reported as “A (A represents 0% ≤ substrate protein remaining % ≤ 50%)”.
Turning to `O=C1CCC(N2Cc3cc(CN4CCN(C5c6ccccc6-c6ccccc65)CC4)ccc3C2=O)C(=O)N1` (stereo not drawn) [GT-05907, 3-(5-((4-(9H-fluoren-9-yl)piperazin-1-yl)methyl)-1-oxoisoindolin-2-yl)piperidine-2,6-dione], the concentration for half-maximal inhibition (IC50) in test [1] is below 500 nM; in test [5], 10 to 50 nM; in test [6], 10 to 50 nM; in test [7] it was 1 to 10 nM; in test [8] it was 10 to 50 nM. Besides, in test [2], the “substrate protein remaining % IKZF1” value is given as “A (A represents 0% ≤ substrate protein remaining % ≤ 50%)”. Besides, the “substrate protein remaining % IKZF3” value in test [3] was “A (A represents 0% ≤ substrate protein remaining % ≤ 50%)”. In addition, in test [4], the “substrate protein remaining % GSPT1” value is listed as “A (A represents 0% ≤ substrate protein remaining % ≤ 50%)”.
Turning to `O=C1CCC(N2Cc3cc(CN4CCN(C(c5ccccc5F)c5ccccc5F)CC4)ccc3C2=O)C(=O)N1` (stereo not drawn) [GT-06084, 3-(5-((4-(bis(2-fluorophenyl)methyl)piperazin-1-yl)methyl)-1-oxoisoindolin-2-yl)piperidine-2,6-dione], the IC50 in test [1] was below 500 nM; in test [5] it was 10 to 50 nM; in test [6] it was 10 to 50 nM; in test [7], 1 to 10 nM; in test [8] it was 10 to 50 nM. The “substrate protein remaining % IKZF1” value in test [2] was “A (A represents 0% ≤ substrate protein remaining % ≤ 50%)”. In test [3], the “substrate protein remaining % IKZF3” value is reported as “A (A represents 0% ≤ substrate protein remaining % ≤ 50%)”. The “substrate protein remaining % GSPT1” value in test [4] is recorded as “A (A represents 0% ≤ substrate protein remaining % ≤ 50%)”.
As to `O=C1CCC(N2C(=O)c3ccc(CN4CCN(C(c5cc(F)cc(F)c5)c5cc(F)cc(F)c5)CC4)cc3C2=O)C(=O)N1` (stereo not drawn) [GT-06596, 5-((4-(bis(3,5-difluorophenyl)methyl)piperazin-1-yl)methyl)-2-(2,6-dioxopiperidin-3-yl) isoindoline-1,3-dione], the “substrate protein remaining % IKZF1” value in test [2] was “A (A represents 0% ≤ substrate protein remaining % ≤ 50%)”. The “substrate protein remaining % IKZF3” value in test [3] was “A (A represents 0% ≤ substrate protein remaining % ≤ 50%)”. For the same molecule, the “substrate protein remaining % GSPT1” value in test [4] is on record as “A (A represents 0% ≤ substrate protein remaining % ≤ 50%)”. The concentration for half-maximal inhibition (IC50) in test [5] is 100 to 500 nM; in test [6], 100 to 500 nM; in test [7], 50 to 100 nM; in test [8], 500 to 1000 nM.
